Data set [1] is described as follows: bioavailability and safety of an intravenous formulation of brivaracetam. The format is in vivo, healthy subjects. Here is the method:
A first step of the study done in a 3-way crossover in 24 healthy subjects (12 females, 12 males) compares the single-dose bioavailability of brivaracetam 10 mg oral tablets versus brivaracetam 10 mg administered as a 15 minute intravenous infusion, and as an IV bolus. In a second step, a single-dose escalation study (25 mg, 50 mg, 100 mg and 150 mg) is performed in 4 consecutive groups of 6 subjects (3 females, 3 males) to gain information and as a fast IV bolus, to assess the pharmacokinetics of brivaracetam at these dosing regimens and to explore dose proportionality.

In data set [2] the test system is audiogenic seizures in sound-susceptible mice. As to the kind of experiment: animal model of sound-susceptible mice. Type of data set: in vivo. The note with it: Mus musculus, ip; intraperitoneally 60 minutes before induction of audiogenic seizures; dose producing 50% protection. The text has this: The objective of this test is to evaluate the anticonvulsant potency of a compound in sound-susceptible mice, a genetic animal model with reflex seizures. In this model of primary generalised epilepsy, seizures are evoked without electrical or chemical stimulation and the seizure types are, at least in part, similar in their clinical phenomenology to seizures occurring in man (Löscher W. 85 Schmidt D., Epilepsy Res. (1998), 2, 145-181; Buchhalter J. R., Epilepsia (1993), 34, S31-S41).
Male or female genetically sound-sensitive mice (14-28 g; N=10), derived from a DBA strain originally selected by Dr. Lehmann of the Laboratory of Acoustic Physiology (Paris) and bred in the UCB Pharma Sector husbandry unit since 1978, are used. The experimental design consisted of several groups, one group receiving the vehicle control and the other groups different doses of the test-compound. The compounds are administered intraperitoneally 60 minutes before the induction of audiogenic seizures.
For testing, the animals are placed in small cages, one mouse per cage, in a sound-attenuated chamber. […] During this interval, the mice are observed and the presence of the 3 phases of the seizure activity namely wild running, clonic and tonic convulsions, is recorded. The proportion of mice protected against wild running, clonic and tonic convulsions, respectively, is calculated. […]

The nature of data set [3]: stability test of brivaracetam solutions at different pH. Type of data set: physicochemical. Here is the method:
Solutions at different pH are prepared (natural pH (not buffered) and pH 4.5, 5.0, 5.5, 6.0. The pH is controlled by means of an adequate buffer in order to obtain the wished pH (in the example by 50 mM citrate).
(§1) The solution is dispensed in 1.5 ml sealed glass vials.
(§2) A stability test is performed at 25° C., 40° C., 60° C. and 80° C.
The pH of the various solutions is measured at the beginning of the test and after 2 weeks, 4 weeks, and 10 weeks. The amounts of degradation products in the brivaracetam solutions are dosed in the various solutions.

In data set [4] the target is T1, Levetiracetam Binding Site (LBS) (Rattus norvegicus, UniProt Q02563).
T1 construct: from tissue; host or cells: rat cerebral cortex crude membranes (male Sprague-Dawley)
The experiment in a line: LBS binding assay. Also noted: species or system Sprague-Dawley rats. Here is the method: [LBS stands for Levetiracetam Binding Site cf. M. Noyer et al., Eur. J. Pharmacol., 286 (1995) 137-146.]
The inhibition constant (Ki) of a compound is determined in competitive binding experiments by measuring the binding of a single concentration of a radioactive ligand at equilibrium with various concentrations of the unlabeled test substance. The concentration of the test substance inhibiting 50% of the specific binding of the radioligand is called the IC50. The equilibrium dissociation constant Ki is proportional to the IC50 and is calculated using the equation of Cheng and Prusoff (Cheng Y. et al., Biochem. Pharmacol. […], 22, 3099-3108).
The concentration range usually encompasses 6 log units with variable steps (0.3 to 0.5 log). Assays are performed in mono- or duplicate, each Ki determination is performed on two different samples of test substance. […]
Membranes (150-200 μg of protein/assay) are incubated at 4° C. for 120 min in 0.5 ml of a 50 mmol/l Tris-HCl buffer (pH 7.4) containing 2 mmol/l MgCl2, 1 to 2 10^−9 mol/l of [^3H]-2-[4-(3-azidophenyl)-2-oxo-1-pyrrolidinyl]butanamide and increasing concentrations of the test substance. […] The radioactivity trapped onto the filters is counted by liquid scintillation in a β-counter (Tri-Carb 1900 or TopCount 9206, Camberra Packard, Belgium, or any other equivalent counter). […]

Data set [5] can be described thus: stability test of seletracetam solutions at different pH. The format is physicochemical. Here is the method: Solutions at different pH are prepared (natural pH (not buffered) and pH 4.5, 5.0, 5.5, 6.0. The pH is controlled by means of an adequate buffer in order to obtain the wished pH (in the example: 50 mM acetate).
as §1, §2
The pH of the various solutions is measured at the beginning of the test and after 2 weeks, 4 weeks, and 10 weeks. The amounts of degradation products in the seletracetam solutions are dosed in the various solutions.

[6] abbreviates: 10 mg IV infusion or IV bolus versus 10 mg oral tablet, fully contained within the bioequivalence range.
The mark [7] stands for this setting: solution having a pH range of 5.0 and 6.0.
The mark [8] stands for this setting: solution in the range of pH of 4.5 and 6.5.

Consider two compounds from patent publication US20110021786A1, “Pharmaceutical Solutions, Process of Preparation and Therapeutic Uses” (UCB PHARMA, S.A., priority 2008, published 2011).

Molecules are shown by their SMILES. Where two headings read alike, the source gives them in different places.

T1 sequence (Q02563 whole entry): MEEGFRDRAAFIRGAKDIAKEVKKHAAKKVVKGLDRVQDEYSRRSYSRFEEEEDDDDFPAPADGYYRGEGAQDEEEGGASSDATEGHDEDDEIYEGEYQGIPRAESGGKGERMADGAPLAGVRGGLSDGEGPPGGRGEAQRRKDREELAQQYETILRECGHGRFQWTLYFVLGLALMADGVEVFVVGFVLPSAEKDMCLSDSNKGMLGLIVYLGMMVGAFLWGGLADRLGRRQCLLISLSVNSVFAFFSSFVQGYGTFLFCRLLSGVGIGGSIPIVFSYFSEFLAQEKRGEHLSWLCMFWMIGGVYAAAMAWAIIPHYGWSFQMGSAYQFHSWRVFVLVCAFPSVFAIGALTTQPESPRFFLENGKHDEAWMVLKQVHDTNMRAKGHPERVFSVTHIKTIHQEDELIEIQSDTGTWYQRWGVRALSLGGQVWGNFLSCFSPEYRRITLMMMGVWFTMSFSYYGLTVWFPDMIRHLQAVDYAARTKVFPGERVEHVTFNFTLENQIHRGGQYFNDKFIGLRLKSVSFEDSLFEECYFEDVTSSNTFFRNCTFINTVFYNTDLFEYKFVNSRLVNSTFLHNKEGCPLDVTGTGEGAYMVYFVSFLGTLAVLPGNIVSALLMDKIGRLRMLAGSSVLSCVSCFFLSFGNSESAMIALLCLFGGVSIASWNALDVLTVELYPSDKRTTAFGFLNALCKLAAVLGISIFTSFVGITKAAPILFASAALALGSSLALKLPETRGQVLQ

A word on the ED50: it is the dose at which the effect has come halfway, by size or by number of responders. Low values mean an effect at a small dose, high ones a need for a large dose. `CCC[C@@H]1CC(=O)N([C@@H](CC)C(N)=O)C1` [Brivaracetam, (2S)-2-[(4R)-2-oxo-4-propyl-pyrrolidin-1-yl] butanamide]: in data set [1] (setting [6]), the “90% confidence intervals of geometric ratios of AUC” value is 80-125% and the “90% confidence intervals of geometric ratios of Cmax” value is on record as 80-125%. Besides, the “bioequivalence to single dose of brivaracetam 10 mg oral tablet” value in data set [1] (10 mg via 15-minute IV infusion, healthy subjects) is “bioequivalent”. The “bioequivalence to single dose of brivaracetam 10 mg oral tablet” value in data set [1] (10 mg via IV bolus, healthy subjects) is “bioequivalent”. The “pharmacokinetic parameters after IV infusion and IV bolus” value in data set [1] (IV infusion compared with IV bolus) was “similar”. Moreover, the “extent of exposure versus dose” value in data set [1] (dose range 25-150 mg) was “proportional to the administered dose”. The safety and tolerability result in data set [1] (from 25 mg to 150 mg as IV infusion or IV bolus, healthy subjects) was “safe and well tolerated”. For the same compound, the median effective dose (ED50) in data set [2] was at most 100 µmol/kg. Further, the degradation rate result in data set [3] (setting [7]) was “lowest”. In addition, the stability of solution entry in data set [3] (setting [8]) is recorded as “stable”. Besides, the Ki in data set [4] is at most 1000 nM.

The compound `CC[C@@H](C(N)=O)N1C[C@H](C=C(F)F)CC1=O` [Seletracetam, (2S)-2-[(4S)-4-(2,2-difluorovinyl)-2-oxo-pyrrolidin-1-yl]butanamide] came in with an ED50 in data set [2] of at most 100 µmol/kg. In addition, the degradation rate result in data set [5] (setting [7]) is given as “lowest”. Besides, in data set [5] (setting [8]), the stability of solution result is “stable”. Also, in data set [4] (rat cerebral cortex membranes, [3H]-2-[4-(3-azidophenyl)-2-oxo-1-pyrrolidinyl]butanamide radioligand, read-out: pKi (converted)), the Ki was at most 1000 nM.
